Experiment: xn = mol fraction of the nth substance listed
Details: 96.7 kPa, Liquid; for viscosity: Capillary tube (Ostwald / Ubbelohde) method; for mass density: Vibrating tube method

CCCCCCn1cc[n+](C)c1.[Cl-] [1-hexyl-3-methylimidazolium chloride] + CC(=O)N(C)C
Details	mass density [kg/m3]	viscosity [mPa·s]
303.15 K, x1 = 0.155	967.16	3.756
303.15 K, x1 = 0.301	989.75	14.88
303.15 K, x1 = 0.392	999.94	35.44
303.15 K, x1 = 0.503	1009.66	92.11
303.15 K, x1 = 0.63	1018.78	295.88
303.15 K, x1 = 0.794	1027.67	917.88
303.15 K, x1 = 0.887	1032.11	2891.3
303.15 K, x1 = 1	1036.07	5718.5
308.15 K, x1 = 0.155	962.92	3.352
308.15 K, x1 = 0.301	986.11	12.57
308.15 K, x1 = 0.392	996.46	28.6
308.15 K, x1 = 0.503	1006.34	70.17
308.15 K, x1 = 0.63	1015.69	212.96
308.15 K, x1 = 0.794	1024.64	624.84
308.15 K, x1 = 0.887	1029.11	1853.1
308.15 K, x1 = 1	1033.22	3430.8
313.15 K, x1 = 0.155	958.82	3.026
313.15 K, x1 = 0.301	982.47	10.74
313.15 K, x1 = 0.392	992.99	23.52
313.15 K, x1 = 0.503	1003.03	55.61
313.15 K, x1 = 0.63	1012.58	158.14
313.15 K, x1 = 0.794	1021.62	440.38
313.15 K, x1 = 0.887	1026.14	1212.9
313.15 K, x1 = 1	1030.38	2146.1
318.15 K, x1 = 0.155	954.87	2.739
318.15 K, x1 = 0.301	978.83	9.242
318.15 K, x1 = 0.392	989.54	19.54
318.15 K, x1 = 0.503	999.74	44.26
318.15 K, x1 = 0.63	1009.45	119.42
318.15 K, x1 = 0.794	1018.61	313.65
318.15 K, x1 = 0.887	1023.19	814.85
318.15 K, x1 = 1	1027.56	1390.4
323.15 K, x1 = 0.155	951	2.493
323.15 K, x1 = 0.301	975.21	8.018
323.15 K, x1 = 0.392	986.09	16.46
323.15 K, x1 = 0.503	996.46	35.84
323.15 K, x1 = 0.63	1006.33	91.95
323.15 K, x1 = 0.794	1015.58	229.39
323.15 K, x1 = 0.887	1020.2	563.41
323.15 K, x1 = 1	1024.75	928.1
328.15 K, x1 = 0.155	–	2.28
328.15 K, x1 = 0.301	–	7.038
328.15 K, x1 = 0.392	–	14
328.15 K, x1 = 0.503	–	29.41
328.15 K, x1 = 0.63	–	71.92
328.15 K, x1 = 0.794	–	171.63
328.15 K, x1 = 0.887	–	400.32
328.15 K, x1 = 1	–	638.79
